Experimental data reported in patent publication EP4603105A1, “PHARMACEUTICAL COMPOSITION CONTAINING CYCLIC COMPOUND HAVING SELECTIVE KRAS INHIBITORY EFFECT AGAINST HRAS AND NRAS” (CHUGAI SEIYAKU KABUSHIKI KAISHA, priority 2022, dated 2024).
pIC50, pKd: −log10 of the molar value. Where a SMILES comes first, the peptide text is derived from it. Bridges are numbered along the chain shown (N, C = ends). [ ]: non-standard residue; d: D form. The star is where a group is joined. hPhe(3,5-F2-4-CF3) = N[C@@H](CCc1cc(F)c(C(F)(F)F)c(F)c1)C(=O)O; hPhe(3-Cl-4-CF3) = N[C@@H](CCc1ccc(C(F)(F)F)c(Cl)c1)C(=O)O; NPrPhe(4-CF3) = CCCN[C@@H](Cc1ccc(C(F)(F)F)cc1)C(=O)O; Abu(4,4,4-F3) = N[C@@H](CC(F)(F)F)C(=O)O; NMeGly(cPent) = CN[C@H](C(=O)O)C1CCCC1; αMeF = C[C@](N)(Cc1ccccc1)C(=O)O; NMeD = CN[C@@H](CC(=O)O)C(=O)O; NMeL = CN[C@@H](CC(C)C)C(=O)O; Morpholide = C1CN(*)CCO1; Ac5c = NC1(C(=O)O)CCCC1; Aze = O=C(O)[C@@H]1CCN1; Sar = CNCC(=O)O

Columns and labels:
HRAS wild-type protein = HRAS wild-type protein (Homo sapiens, UniProt P01112); test: Binding to HRAS by surface plasmon resonance (SPR), KD and KD ratio to KRAS
In short: (§1)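 Compound binding is evaluated by SPR single-cycle kinetics, with concentrations added intermittently from low to high for 75 s each. Target surfaces carry GDP-loaded biotinylated Avi-RAS at about 100–300 RU, regenerated after each cycle; temperature 30°C. A 1:1 binding model gives KD.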

[1] = biological target: GDP-bound NRAS wild-type protein (Homo sapiens, UniProt P01111); test: Binding to NRAS by surface plasmon resonance (SPR), KD and KD ratio to KRAS
In short: as §1

[2] = tested on: human lung cancer strain NCI-H441; assay type: cell-based
In short: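 Proliferation was scored by […] measured after the reagent was added to cultures kept at 37°C in 5% carbon dioxide.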

[3] = biological target: GDP-bound KRAS wild-type protein (Homo sapiens, UniProt P01116); test: Binding to KRAS by surface plasmon resonance (SPR), dissociation constant KD
In short: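 Affinity is measured by surface plasmon resonance at 30°C against captured, GDP-loaded RAS carrying a biotinylated Avi tag. Compounds are titrated by single-cycle kinetics, and KD comes from a 1:1 fit.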

[4] = ratio of KD value for HRAS wild-type protein to KD value for KRAS (SPR)
[5] = ratio of KD value for GDP-bound NRAS wild-type protein to KD value for KRAS (SPR)
[6] = Single Cycle Kinetics, 1:1 binding model
[7] = ratio of KD for HRAS wild-type protein to KD for KRAS
[8] = ratio of KD for GDP-bound NRAS wild-type protein to KD for KRAS

Sequence of GDP-bound NRAS wild-type protein (P01111 whole entry): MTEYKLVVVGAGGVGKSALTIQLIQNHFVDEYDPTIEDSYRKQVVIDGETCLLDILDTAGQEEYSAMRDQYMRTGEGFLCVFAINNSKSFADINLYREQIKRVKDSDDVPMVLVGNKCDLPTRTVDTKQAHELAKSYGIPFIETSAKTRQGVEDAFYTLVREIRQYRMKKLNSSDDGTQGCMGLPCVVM
Sequence of HRAS wild-type protein (P01112 whole entry): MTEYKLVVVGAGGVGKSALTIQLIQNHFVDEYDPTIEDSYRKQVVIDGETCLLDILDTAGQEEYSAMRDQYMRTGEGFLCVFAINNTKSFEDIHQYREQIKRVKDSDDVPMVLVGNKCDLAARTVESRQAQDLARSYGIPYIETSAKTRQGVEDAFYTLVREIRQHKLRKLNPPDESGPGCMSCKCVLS
Sequence of GDP-bound KRAS wild-type protein (P01116 1-188 isoform P01116-2): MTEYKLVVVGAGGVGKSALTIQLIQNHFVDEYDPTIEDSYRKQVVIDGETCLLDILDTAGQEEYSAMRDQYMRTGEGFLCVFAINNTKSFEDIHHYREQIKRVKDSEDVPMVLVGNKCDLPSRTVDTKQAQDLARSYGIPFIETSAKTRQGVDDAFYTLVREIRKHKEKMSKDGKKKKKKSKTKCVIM

SMILES | pIC50 [2] | pKd [3, 6] | pKd ([3]; Single Cycle Kinetics) | pKd ([3]; 1:1 binding model) | HRAS /KRAS (HRAS wild-type protein; [4]) | NRAS /KRAS [1, 5] | HRAS /KRAS (HRAS wild-type protein; ratio of the KD value with respect to HRAS wild-type protein to the KD value with respect to KRAS) | NRAS /KRAS ([1]; ratio of the KD value with respect to GDP-bound NRAS wild-type protein to the KD value with respect to KRAS) | HRAS /KRAS (HRAS wild-type protein; [7]) | NRAS /KRAS [1, 8]
CC[C@H](C)[C@@H]1NC(=O)[C@H](CC2CC2)N(C)C(=O)C[C@@H](C(=O)N(C)C)N(C)C(=O)[C@H](C2CCCC2)N(C)C(=O)C2(CCC2)NC(=O)[C@@H]2C[C@H](C)CN2C(=O)[C@H](CCc2ccc(C(F)(F)F)c(OC)c2)NC(=O)CN(C)C(=O)[C@H](Cc2ccc(C)cc2)N2CC/C=C\C[C@@H](C2=O)N(C)C(=O)CN(C)C1=O [PP1861] | 7.59 | 10.04 | – | – | B (a compound having 3 or more and less than 10 is denoted as B) | A (a compound having 10 or more and less than 20 is denoted as A) | – | – | – | –
CC[C@H](C)[C@@H]1NC(=O)[C@H](CC)N(C)C(=O)C[C@@H](C(=O)N(C)C)N(C)C(=O)[C@H](C2CCCC2)N(C)C(=O)C2(CCC2)N(C)C(=O)[C@@H]2CCCN2C(=O)[C@H](CCc2cc(F)c(C(F)(F)F)c(F)c2)NC(=O)CN(C)C(=O)[C@H](Cc2ccc(C)cc2)N2CC/C=C\C[C@@H](C2=O)N(C)C(=O)CN(C)C1=O [PP1782] | 8.17 | 10.36 | – | – | B (a compound having 3 or more and less than 10 is denoted as B) | A (a compound having 10 or more and less than 20 is denoted as A) | – | – | – | –
CCCN1C(=O)CN(C)C(=O)[C@@H]2CCN2C(=O)[C@H]([C@@H](C)CC)NC(=O)[C@H](CC(C)C)N(C)C(=O)C[C@@H](C(=O)N2CCOCC2)N(C)C(=O)[C@H](C2CCCC2)N(C)C(=O)[C@](C)(Cc2ccccc2)NC(=O)[C@@H]2CCCN2C(=O)[C@H](CCc2cc(F)c(C(F)(F)F)c(F)c2)NC(=O)CN(C)C(=O)[C@@H]1Cc1ccc(C(F)(F)F)cc1 [PP0778] ([NMeL]I[Aze][Sar][NPrPhe(4-CF3)][Sar][hPhe(3,5-F2-4-CF3)]P[αMeF][NMeGly(cPent)][NMeD]-Morpholide; lactam N-11) | 6.26 | – | 8.00 | – | – | – | – | – | B (a compound having 3 or more and less than 10 is denoted as B) | B (a compound having 3 or more and less than 10 is denoted as B)
CCCN1C(=O)CN(C)C(=O)[C@@H]2CCN2C(=O)[C@H](CC(F)(F)F)NC(=O)[C@H](CC(C)C)N(C)C(=O)C[C@@H](C(=O)N2CCOCC2)N(C)C(=O)[C@H](C2CCCC2)N(C)C(=O)C2(CCCC2)NC(=O)[C@@H]2CCCN2C(=O)[C@H](CCc2ccc(C(F)(F)F)c(Cl)c2)NC(=O)CN(C)C(=O)[C@@H]1Cc1ccc(C(F)(F)F)cc1 [PP0304] ([NMeL][Abu(4,4,4-F3)][Aze][Sar][NPrPhe(4-CF3)][Sar][hPhe(3-Cl-4-CF3)]P[Ac5c][NMeGly(cPent)][NMeD]-Morpholide; lactam N-11) | 6.95 | – | – | 8.72 | – | – | – | – | B (a compound having 3 or more and less than 10 is denoted as B) | B (a compound having 3 or more and less than 10 is denoted as B)

Further lines, with some results ahead:

pIC50 [2] | pKd [3, 6] | pKd ([3]; Single Cycle Kinetics) | pKd ([3]; 1:1 binding model) | SMILES | HRAS /KRAS (HRAS wild-type protein; [4]) | NRAS /KRAS [1, 5] | HRAS /KRAS (HRAS wild-type protein; ratio of the KD value with respect to HRAS wild-type protein to the KD value with respect to KRAS) | NRAS /KRAS ([1]; ratio of the KD value with respect to GDP-bound NRAS wild-type protein to the KD value with respect to KRAS) | HRAS /KRAS (HRAS wild-type protein; [7]) | NRAS /KRAS [1, 8]
7.48 | 9.39 | – | – | CCC[C@@H]1C[C@H]2C(=O)NC3(CCCC3)C(=O)N(C)[C@@H](C3CCCC3)C(=O)N(C)[C@H](C(=O)N(C)C)CC(=O)N(C)[C@@H](CC(C)C)C(=O)N[C@@H]([C@@H](C)CC)C(=O)N(C)CC(=O)N(C)[C@H]3C/C=C\CCN(C3=O)[C@@H](Cc3ccc(C)cc3)C(=O)N(C)CC(=O)N[C@@H](CCc3cc(F)c(C(F)(F)F)c(F)c3)C(=O)N2C1 [PP2193] | – | – | A (a compound having 10 or more and less than 20 is denoted as A) | A (a compound having 10 or more and less than 20 is denoted as A) | – | –
7.38 | – | – | 8.85 | CCO[C@@H]1C[C@H]2C(=O)NC3(CC(C)(C)C3)C(=O)N(C)[C@@H](C3CCCC3)C(=O)N(C)[C@H](C(=O)N(C)CC)CC(=O)N(C)[C@@H](CC(C)C)C(=O)N[C@@H]([C@@H](C)CC)C(=O)N(C)CC(=O)N(C)[C@H]3C/C=C\CCN(C3=O)[C@@H](Cc3ccc(C(F)F)cc3)C(=O)N(C)CC(=O)N[C@@H](CCc3cc(C)c(C(F)F)c(Cl)c3)C(=O)N2C1 [PP3146] | – | – | – | – | A (a compound having 10 or more and less than 20 is denoted as A) | A (a compound having 10 or more and less than 20 is denoted as A)
